According to PubChem BioAssay AID248 (DTP/NCI, 2004):
Values joined by “and” are separate entries in the source; they are usually repeats but may differ in a detail not shown here. Identical values can stand only once. Inconclusive results and toxic doses are left out.

Tested on: L1210 leukemia ip in BDF1 mice, survival T/C
Assay: NCI In Vivo Anticancer Drug Screen. Data for tumor model L1210 Leukemia (intraperitoneal) in B6D2F1 (BDF1) mice
Conditions: endpoint: mean survival time, higher = longer survival
How it was run: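 Transplanted-tumor mice were given test agent; controls received vehicle only. Survival readings from the two groups were divided (treated over control).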

[1] = dose: 100.0 mg/kg/injection, schedule: Q01DX001 (ip), vehicle: other
[2] = dose: 200.0 mg/kg/injection, schedule: Q01DX001 (ip), vehicle: other
[3] = dose: 100.0 mg/kg/injection, schedule: Q01DX001 (ip), vehicle: saline
[4] = dose: 200.0 mg/kg/injection, schedule: Q01DX001 (ip), vehicle: saline
[5] = dose: 400.0 mg/kg/injection, schedule: Q01DX001 (ip), vehicle: saline

O=C(C(=O)N1CC2OC2C1)N1CC2OC2C1 (centres undefined)
T/C (dose: 29.0 mg/kg/injection, schedule: Q04DX002 (ip), vehicle: saline with Tween-80): 95 % of control | T/C (dose: 39.0 mg/kg/injection, schedule: Q01DX001 (ip), vehicle: saline with Tween-80): 98 % of control | T/C (dose: 44.0 mg/kg/injection, schedule: Q04DX002 (ip), vehicle: saline with Tween-80): 100 % of control | T/C (dose: 59.0 mg/kg/injection, schedule: Q01DX001 (ip), vehicle: saline with Tween-80): 102 % of control | T/C (dose: 67.0 mg/kg/injection, schedule: Q04DX002 (ip), vehicle: saline with Tween-80): 100 % of control | T/C (dose: 88.0 mg/kg/injection, schedule: Q01DX001 (ip), vehicle: saline with Tween-80): 97 % of control | T/C (dose: 133.0 mg/kg/injection, schedule: Q01DX001 (ip), vehicle: saline with Tween-80): 97 % of control | T/C (dose: 150.0 mg/kg/injection, schedule: Q04DX002 (ip), vehicle: saline with Tween-80): 102 % of control | T/C (dose: 200.0 mg/kg/injection, schedule: Q01DX001 (ip), vehicle: saline with Tween-80): 97 % of control | T/C (dose: 200.0 mg/kg/injection, schedule: Q04DX002 (ip), vehicle: saline with Tween-80): 239 % of control | T/C (dose: 225.0 mg/kg/injection, schedule: Q04DX002 (ip), vehicle: saline with Tween-80): 105 % of control | T/C (dose: 300.0 mg/kg/injection, schedule: Q01DX001 (ip), vehicle: saline with Tween-80): 100 % of control

CN(C=O)COCN(C)C=O
T/C [1]: 98 % of control | T/C (dose: 100.0 mg/kg/injection, schedule: Q04DX003 (ip), vehicle: other): 98 % of control | T/C [2]: 97 % of control | T/C (dose: 200.0 mg/kg/injection, schedule: Q04DX003 (ip), vehicle: other): 102 % of control | T/C (dose: 400.0 mg/kg/injection, schedule: Q01DX001 (ip), vehicle: other): 97 % of control | T/C (dose: 400.0 mg/kg/injection, schedule: Q04DX003 (ip), vehicle: other): 104 % of control

CN(C)CCOC(=O)N1c2ccccc2C(C)(C)c2ccccc21
T/C (dose: 5.8 mg/kg/injection, schedule: Q01DX001 (ip), vehicle: water): 93 % of control | T/C (dose: 11.5 mg/kg/injection, schedule: Q01DX001 (ip), vehicle: water): 98 % of control | T/C (dose: 23.0 mg/kg/injection, schedule: Q01DX001 (ip), vehicle: water): 91 % of control | T/C (dose: 44.4 mg/kg/injection, schedule: Q01DX001 (ip), vehicle: water): 95 % of control | T/C (dose: 50.0 mg/kg/injection, schedule: Q01DX001 (ip), vehicle: water): 100 % of control | T/C (dose: 66.7 mg/kg/injection, schedule: Q01DX001 (ip), vehicle: water): 97 % of control | T/C (dose: 150.0 mg/kg/injection, schedule: Q01DX001 (ip), vehicle: water): 95 % of control

CC(C)N(C)N=Nc1n[nH]nc1C(N)=O
T/C (dose: 200.0 mg/kg/injection, schedule: Q01DX Z (ip), vehicle: carboxymethylcellulose (CMC)): 104 % of control

O=c1[nH]cnc2c1cnn2C1OC(CO)C(O)C1O (centres undefined)
T/C (dose: 12.5 mg/kg/injection, schedule: Q01DX005 (ip), vehicle: water): 92 % of control | T/C (dose: 25.0 mg/kg/injection, schedule: Q01DX005 (ip), vehicle: water): 106 % of control | T/C (dose: 50.0 mg/kg/injection, schedule: Q01DX005 (ip), vehicle: water): 97 % of control | T/C (dose: 100.0 mg/kg/injection, schedule: Q01DX005 (ip), vehicle: water): 108 % of control | T/C (dose: 200.0 mg/kg/injection, schedule: Q01DX005 (ip), vehicle: water): 93 % of control

C/C(=N\Nc1nc2ccccc2o1)c1ccncc1
T/C (dose: 50.0 mg/kg/injection, schedule: Q01DX009 (ip), vehicle: Klucel (hydroxypropylcellulose) (HPC)): 105 % of control | T/C (dose: 100.0 mg/kg/injection, schedule: Q01DX009 (ip), vehicle: Klucel (hydroxypropylcellulose) (HPC)): 105 % of control | T/C (dose: 200.0 mg/kg/injection, schedule: Q01DX009 (ip), vehicle: Klucel (hydroxypropylcellulose) (HPC)): 116 % of control | T/C (dose: 400.0 mg/kg/injection, schedule: Q01DX009 (ip), vehicle: Klucel (hydroxypropylcellulose) (HPC)): 108 % of control

Nc1ccc2ncccc2c1[N+](=O)[O-]
T/C [1]: 87 % of control | T/C [2]: 93 % of control

Nc1ccc(C(=O)O)c(F)c1
T/C (dose: 100.0 mg/kg/injection, schedule: Q04DX002 (ip), vehicle: Klucel (hydroxypropylcellulose) (HPC)): 101 % of control | T/C (dose: 200.0 mg/kg/injection, schedule: Q04DX002 (ip), vehicle: Klucel (hydroxypropylcellulose) (HPC)): 104 % of control | T/C (dose: 400.0 mg/kg/injection, schedule: Q04DX002 (ip), vehicle: Klucel (hydroxypropylcellulose) (HPC)): 101 % of control

CC(C)CC(=O)CC(Cl)(C(F)(F)F)C(F)(F)F
T/C (dose: 100.0 mg/kg/injection, schedule: Q04DX003 (ip), vehicle: gum acacia): 100 % of control | T/C (dose: 200.0 mg/kg/injection, schedule: Q04DX003 (ip), vehicle: gum acacia): 100 % of control | T/C (dose: 400.0 mg/kg/injection, schedule: Q04DX003 (ip), vehicle: gum acacia): 90 % of control

Cc1cc(O)c(C(N)=O)c(=O)[nH]1
T/C [3]: 95 % of control | T/C [4]: 98 % of control | T/C [5]: 101 % of control

Cc1ccc(CCCCCCCCCCCC(=O)O)cc1
T/C (dose: 50.0 mg/kg/injection, schedule: Q01DX009 (ip), vehicle: saline with Tween-80): 93 % of control | T/C (dose: 100.0 mg/kg/injection, schedule: Q01DX009 (ip), vehicle: saline with Tween-80): 97 % of control | T/C (dose: 200.0 mg/kg/injection, schedule: Q01DX009 (ip), vehicle: saline with Tween-80): 93 % of control

O=C(Nc1cccc(NC(=O)Nc2cccc(C3=NCCN3)c2)c1)Nc1cccc(C2=NCCN2)c1
T/C (dose: 16.4 mg/kg/injection, schedule: Q01DX Z (ip), vehicle: carboxymethylcellulose (CMC)): 121 % of control | T/C (dose: 27.0 mg/kg/injection, schedule: Q01DX Z (ip), vehicle: carboxymethylcellulose (CMC)): 156 % of control | T/C (dose: 37.0 mg/kg/injection, schedule: Q01DX Z (ip), vehicle: carboxymethylcellulose (CMC)): 121 % of control | T/C (dose: 55.5 mg/kg/injection, schedule: Q01DX Z (ip), vehicle: carboxymethylcellulose (CMC)): 123 % of control | T/C (dose: 66.0 mg/kg/injection, schedule: Q01DX Z (ip), vehicle: carboxymethylcellulose (CMC)): 107 % of control | T/C (dose: 83.3 mg/kg/injection, schedule: Q01DX Z (ip), vehicle: carboxymethylcellulose (CMC)): 121 % of control | T/C (dose: 90.0 mg/kg/injection, schedule: Q01DX Z (ip), vehicle: saline): 107 % of control | T/C (dose: 125.0 mg/kg/injection, schedule: Q01DX Z (ip), vehicle: carboxymethylcellulose (CMC)): 101 % of control | T/C (dose: 187.5 mg/kg/injection, schedule: Q01DX Z (ip), vehicle: carboxymethylcellulose (CMC)): 104 % of control

CCCCCCCCCCCCCCCCCCNC(=S)NN=C(NNC(=S)NCCCCCCCCCCCCCCCCCC)NNC(=S)NCCCCCCCCCCCCCCCCCC
T/C (dose: 15.0 mg/kg/injection, schedule: Q01DX Z (ip), vehicle: carboxymethylcellulose (CMC)): 101 % of control | T/C (dose: 30.0 mg/kg/injection, schedule: Q01DX Z (ip), vehicle: carboxymethylcellulose (CMC)): 111 % of control | T/C (dose: 60.0 mg/kg/injection, schedule: Q01DX Z (ip), vehicle: carboxymethylcellulose (CMC)): 109 % of control and 114 % of control | T/C (dose: 120.0 mg/kg/injection, schedule: Q01DX Z (ip), vehicle: carboxymethylcellulose (CMC)): 114 % of control | T/C (dose: 240.0 mg/kg/injection, schedule: Q01DX Z (ip), vehicle: carboxymethylcellulose (CMC)): 111 % of control | T/C (dose: 480.0 mg/kg/injection, schedule: Q01DX Z (ip), vehicle: carboxymethylcellulose (CMC)): 111 % of control

CCC(C(=O)O)(c1ccccc1)c1ccccc1
T/C (dose: 100.0 mg/kg/injection, schedule: Q04DX002 (ip), vehicle: gum acacia): 93 % of control | T/C (dose: 200.0 mg/kg/injection, schedule: Q04DX002 (ip), vehicle: gum acacia): 111 % of control | T/C (dose: 400.0 mg/kg/injection, schedule: Q04DX002 (ip), vehicle: gum acacia): 86 % of control

CC1=CC(C)(C)NC(=S)N1c1ccc(O)cc1
T/C (dose: 75.0 mg/kg/injection, schedule: Q01DX009 (ip), vehicle: saline with Tween-80): 92 % of control | T/C (dose: 150.0 mg/kg/injection, schedule: Q01DX009 (ip), vehicle: saline with Tween-80): 101 % of control | T/C (dose: 300.0 mg/kg/injection, schedule: Q01DX009 (ip), vehicle: saline with Tween-80): 90 % of control

Cc1ccc(S(=O)(=O)CC#CCOc2ccccc2)cc1
T/C (dose: 50.0 mg/kg/injection, schedule: Q01DX009 (ip), vehicle: saline): 92 % of control | T/C [3]: 92 % of control | T/C (dose: 100.0 mg/kg/injection, schedule: Q01DX009 (ip), vehicle: saline): 105 % of control | T/C [4]: 97 % of control | T/C (dose: 200.0 mg/kg/injection, schedule: Q01DX009 (ip), vehicle: saline): 92 % of control | T/C [5]: 101 % of control

CNC(=O)Oc1cccc(NC(=O)OC(C)(C)C)c1
T/C (dose: 100.0 mg/kg/injection, schedule: Q04DX003 (ip), vehicle: saline with Tween-80): 101 % of control | T/C (dose: 200.0 mg/kg/injection, schedule: Q04DX003 (ip), vehicle: saline with Tween-80): 94 % of control | T/C (dose: 400.0 mg/kg/injection, schedule: Q04DX003 (ip), vehicle: saline with Tween-80): 95 % of control
